Assay results taken from PMC11509018, “Evaluation of the Role of Tanshinone I in an In Vitro System of Charcot-Marie-Tooth Disease Type 2N” (International Journal of Molecular Sciences, 2024).

Target: T1, AlaRS E337K binding to Nrp1 (Homo sapiens, UniProt P49588, E337K)
T1 construct: expressed in transfected cells
T1 sequence (P49588 1-968 E337K): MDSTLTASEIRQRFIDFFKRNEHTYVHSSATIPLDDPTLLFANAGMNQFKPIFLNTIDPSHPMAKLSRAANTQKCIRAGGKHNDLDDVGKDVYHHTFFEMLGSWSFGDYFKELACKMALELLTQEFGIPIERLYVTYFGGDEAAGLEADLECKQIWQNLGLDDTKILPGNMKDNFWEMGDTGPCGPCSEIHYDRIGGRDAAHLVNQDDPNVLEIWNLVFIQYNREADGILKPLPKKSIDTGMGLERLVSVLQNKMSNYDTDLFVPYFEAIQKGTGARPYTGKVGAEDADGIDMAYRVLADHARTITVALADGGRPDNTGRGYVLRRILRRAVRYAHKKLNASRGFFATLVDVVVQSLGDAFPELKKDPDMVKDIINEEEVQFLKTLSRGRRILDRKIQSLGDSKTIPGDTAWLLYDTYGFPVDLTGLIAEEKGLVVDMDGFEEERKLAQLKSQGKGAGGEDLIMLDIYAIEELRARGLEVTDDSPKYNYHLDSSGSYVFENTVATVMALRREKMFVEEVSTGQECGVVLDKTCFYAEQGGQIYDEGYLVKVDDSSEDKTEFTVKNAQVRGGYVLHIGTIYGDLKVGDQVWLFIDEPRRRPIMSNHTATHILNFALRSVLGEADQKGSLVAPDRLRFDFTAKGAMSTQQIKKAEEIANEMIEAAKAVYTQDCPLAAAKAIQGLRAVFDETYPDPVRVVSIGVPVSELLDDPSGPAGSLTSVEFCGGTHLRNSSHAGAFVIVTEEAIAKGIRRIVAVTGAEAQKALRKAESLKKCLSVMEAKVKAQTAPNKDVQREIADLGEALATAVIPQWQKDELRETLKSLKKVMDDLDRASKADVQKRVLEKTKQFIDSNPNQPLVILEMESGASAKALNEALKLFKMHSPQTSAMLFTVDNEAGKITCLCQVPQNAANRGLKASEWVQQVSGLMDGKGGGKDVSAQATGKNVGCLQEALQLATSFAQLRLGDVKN
Assay: Co-IP of HA-AlaRS mutant with Nrp1 in transfected cells
Assay type: cell-based
Details: 20 µM Tanshinone I for 24 h, ImageJ, average of three repeats

Mean density band (E337K), relative quantification of AlaRS mutant immunoprecipitated: 0.62
Structure (SMILES): Cc1coc2c1C(=O)C(=O)c1c-2ccc2c(C)cccc12 [Tanshinone I]
